We go through one compound from patent US11273250B2, “Devices, systems, and methods for excavating cancer cells” (GEORGIA TECH RESEARCH CORPORATION, priority 2010, dated 2022).

The structures appear in SMILES notation.

The test system of data set [1] is tumor cells. Briefly: Viability of tumor cells at different concentrations of cyclopamine. The note with it: concentration suggested for conjugation to the collagen hydrogel scaffold. Type of data set: cell-based. On the procedure:
(§1) The smoothened inhibitor, cyclopamine, was evaluated to determine the effective drug concentration required to induce apoptosis in tumor cells. The viability of the tumors cells was measured at different concentrations of cyclopamine. Healthy cells (e.g., neurons and glia) were not affected by exposure to the drug.

For data set [2], the system named is Healthy cells (e.g., neurons and glia). Briefly: Effect of cyclopamine exposure on healthy cells. Type of data set: cell-based. On the procedure: as §1

`CC1=C2C[C@H]3[C@@H](CC=C4C[C@@H](O)CC[C@@]43C)[C@@H]2CC[C@]12O[C@@H]1C[C@H](C)CN[C@H]1[C@H]2C` [cyclopamine]: the “effective drug concentration required to induce apoptosis in tumor cells” value in data set [1] turned out to be 30 µM. Moreover, the “effect of exposure to the drug on healthy cells” value in data set [2] was “not affected”.
